Counter-ions that a name gives are not always drawn.
Assays:
[1] = tested on: human A549 lung cancer cell line; assay: Cell growth inhibition assay (SRB), Example 1; assay type: cell-based; conditions: Homo sapiens; table footnotes of Example 1; A549
Excerpt: Results and discussion. […] Etoposide (VP-16) was used as the reference compound.
Cell Growth Inhibition Assay. The human A549 lung cancer cell line was used for the cytotoxicity screening of PBT derivatives using the cell-based sulforhodamine B (SRB) microtitre plate assay. […] Duration of compound exposure was 3 days.

[2] = tested on: human A549 lung cancer cell line; assay: Cell growth inhibition assay (SRB), Example 2, A549; assay type: cell-based
Excerpt: Cell Growth Inhibition Assay. The sulforhodamine B assay was used according to the procedures developed and validated at NCI. […] The values were interpolated from dose-response data.

[3] = tested on: KB (nasopharyngeal); assay: Cell growth inhibition assay (SRB), Example 2, KB; assay type: cell-based, human; conditions: Table 6, 72-h continuous treatment
Excerpt: (§1) Drug-Resistance Study. Twelve active compounds [including four hydrochloride salts (18b, 22b, 24b, 32b) of corresponding active free bases (18a, 22a, 24a, 32a)] were further screened against an extended panel of human tumor cell lines including DU-145 (prostate), ZR-751 (breast), KB (nasopharyngeal), and KB-VIN (multidug-resistant KB subline) in order to explore their antitumor spectra and drug-resistance profiles. Four compounds were used as reference compounds. Antofine is a positional isomer of tylophorine isolated from Asclepiadaceae by Dr. T. S. Wu in Taiwan (Wu, P. L. et al., Heterocycles 2002; 57:2401). […] Doxorubicin (Adriamycin), vincristine, and etoposide (VP-16, Vepesid®) are widely used anticancer agents for treating a range of solid tumors.
(§2) Cell Growth Inhibition Assay. The sulforhodamine B assay was used according to the procedures developed and validated at NCI. The in vitro anticancer activities are expressed as ED50 values, which is the test compound concentration (μM) that reduced the cell number by 50% after 72-h of continuous treatment. The values were interpolated from dose-response data. Each test was performed in triplicate with variation less than 5%. The ED50 values determined in each of independent tests varied less than 10%. Compound stock solutions were prepared in DMSO with the final solvent concentration ≦1% DMSO (v/v), a concentration without effect on cell replication. The cells were cultured at 37° C. in RPMI-1640 supplemented with 25 mM N-2-hydroxyethylpiperazine-N′-2-ethanesulfonic acid (HEPES), […], 10% (v/v) fetal bovine serum, and 100 μg/mL kanamycin in a humidified atmosphere containing 5% CO2.

[4] = tested on: DU-145 (prostate); assay: Cell growth inhibition assay (SRB), Example 2, DU-145; assay type: cell-based, human; conditions: Table 6, 72-h continuous treatment
Excerpt: as §1, §2

[5] = tested on: ZR-751 (breast); assay: Cell growth inhibition assay (SRB), Example 2, ZR-751; assay type: cell-based, human; conditions: Table 6, 72-h continuous treatment
Excerpt: as §1, §2

[6] = tested on: KB-VIN (multidug-resistant KB subline); assay: Cell growth inhibition assay (SRB), Example 2, KB-VIN; assay type: cell-based, human; conditions: Table 6, 72-h continuous treatment
Excerpt: as §1, §2

[7] = tested on: tumor cell line panel (A549, KB, DU-145, ZR-751, KB-VIN); assay: Cytotoxic activity against the whole tumor cell line panel; assay type: cell-based, human; conditions: all cell lines of the panel; read-out: ED50 values against the tumor cell line panel
Excerpt: as §1
Cell Growth Inhibition Assay. The sulforhodamine B assay was used according to the procedures developed and validated at NCI. The in vitro anticancer activities are expressed as ED50 values, which is the test compound concentration (μM) that reduced the cell number by 50% after 72-h of continuous treatment. The values were interpolated from dose-response data. Each test was performed in triplicate with variation less than 5%. The ED50 values determined in each of independent tests varied less than 10%. […]

[8] = Homo sapiens, A549, 72 h, Table 4, ED50, 72-h continuous treatment, NA = not active, read-out: A549 (μM), in vitro anticancer activity against A549 lung cancer cells
[9] = Homo sapiens, A549, 72 h, Table 6, 72-h continuous treatment, read-out: EC50 (μM) A549
[10] = Table 6, 72-h continuous treatment, hydrochloride, read-out: EC50 (μM) A549

In the case of `COc1cc([C@@H]2c3cc4c(cc3[C@@H](O[C@@H]3O[C@@H]5CO[C@@H](C)O[C@H]5[C@H](O)[C@H]3O)[C@H]3COC(=O)[C@H]23)OCO4)cc(OC)c1O` [Etoposide (VP-16), Etoposide, reference compound], the EC50 [1] is reported as 1400 nM, the EC50 [2, 8] is reported as 1.4 µM and the EC50 [2, 9] is reported as 1.4 µM. For the same molecule, the EC50 ([3]; Homo sapiens, 72 h) was 4.8 µM, the EC50 ([4]; Homo sapiens, DU-145, 72 h) was 2.4 µM and the EC50 ([5]; Homo sapiens, ZR-75-1, 72 h) was 3.1 µM. The EC50 ([6]; Homo sapiens, KBVIN, 72 h) was greater than 10 µM.

In the case of `COc1ccc2c(CNCCCCCCO)cc3cc4c(cc3c2c1)OCO4` [Compound 22a, N-(2,3-Methylenedioxy-6-methoxy-phenanthr-9-ylmethyl)-6-aminohexanol], the EC50 [2, 8] is reported as 0.2 µM, the EC50 [2, 9] is reported as 0.16 µM and the EC50 ([3]; Homo sapiens, 72 h) is reported as 0.25 µM. It also gave an EC50 ([4]; Homo sapiens, DU-145, 72 h) of 0.04 µM, an EC50 ([5]; Homo sapiens, ZR-75-1, 72 h) of 0.13 µM and an EC50 [6] of 0.35 µM. For the same molecule, the melting point was 145 to 147 °C.

With `COc1ccc2c(CN3CCC(CCO)CC3)cc3cc4c(cc3c2c1)OCO4.Cl` [Compound 32b, N-(2,3-Methylenedioxy-6-methoxy-phenanthr-9-ylmethyl)-4-piperidineethanol hydrochloride] the EC50 [2, 10] was 0.09 µM, the EC50 ([3]; hydrochloride) was 0.2 µM and the EC50 ([4]; hydrochloride) was 0.1 µM. The EC50 ([5]; hydrochloride) was 0.02 µM, the EC50 ([6]; hydrochloride) was 0.2 µM and the melting point was 153 to 155 °C.

Molecule `COc1ccc2c(CNCCCCCCO)cc3cc4c(cc3c2c1)OCO4.Cl` [Compound 22b, N-(2,3-Methylenedioxy-6-methoxy-phenanthr-9-ylmethyl)-6-aminohexanol hydrochloride] has an EC50 [2, 10] of 0.13 µM, an EC50 ([3]; hydrochloride) of 0.23 µM and an EC50 ([4]; hydrochloride) of 0.07 µM. The EC50 ([5]; hydrochloride) was 0.08 µM, the EC50 ([6]; hydrochloride) was 0.16 µM and the melting point was 187 to 188 °C.

For `COc1ccc2c(CN3CCC(CO)CC3)cc3cc4c(cc3c2c1)OCO4` [Compound 24b, N-(2,3-Methylenedioxy-6-methoxy-phenanthr-9-ylmethyl)-L-4-piperidinemethanol hydrochloride], the EC50 [2, 10] was 0.07 µM, the EC50 ([3]; hydrochloride) was 0.07 µM and the EC50 ([4]; hydrochloride) was 0.05 µM. For the same molecule, the EC50 ([5]; hydrochloride) was 0.04 µM, the EC50 ([6]; hydrochloride) was 0.04 µM and the EC50 [7] was less than 100 nM.
